Measurements from the supplement of paper PMC10307832.

Assays:
Experiment in all cases: relative viability (nuclei count vs DMSO), 5 days (fraction); higher = more cells survive
201T = system: 201T
Summary of the method: (§1)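 Relative viability is defined as nuclei in treated wells over nuclei in vehicle wells. Duplicate plates were run and medians reported. Lung cancer cell lines in 1536-well plates were dosed by pin tool one day after seeding, with one drug or with a fixed anchor-drug dose plus five library-drug doses (not always all listed) in √10 steps, and nuclei were counted after 5 days.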

BEN = system: BEN
Summary of the method: as §1

CAL-12T = system: CAL-12T
Summary of the method: as §1

HCC-78 = system: HCC-78
Summary of the method: as §1

HOP-62 = system: HOP-62
Summary of the method: as §1

LCLC-97TM1 = system: LCLC-97TM1
Summary of the method: as §1

LOU-NH91 = system: LOU-NH91
Summary of the method: as §1

NCI-H1355 = system: NCI-H1355
Summary of the method: as §1

NCI-H1395 = system: NCI-H1395
Summary of the method: as §1

NCI-H1563 = system: NCI-H1563
Summary of the method: as §1

NCI-H1651 = system: NCI-H1651
Summary of the method: as §1

NCI-H1793 = system: NCI-H1793
Summary of the method: as §1

NCI-H1915 = system: NCI-H1915
Summary of the method: as §1

NCI-H1944 = system: NCI-H1944
Summary of the method: as §1

NCI-H2126 = system: NCI-H2126
Summary of the method: as §1

NCI-H2347 = system: NCI-H2347
Summary of the method: as §1

NCI-H3122 = system: NCI-H3122
Summary of the method: as §1

NCI-H322M = system: NCI-H322M
Summary of the method: as §1

NCI-H441 = system: NCI-H441
Summary of the method: as §1

NCI-H650 = system: NCI-H650
Summary of the method: as §1

NCI-H838 = system: NCI-H838
Summary of the method: as §1

SK-LU-1 = system: SK-LU-1
Summary of the method: as §1

SW 1573 = system: SW 1573
Summary of the method: as §1

CN1CCN(CCOc2cc(OC3CCOCC3)c3c(Nc4c(Cl)ccc5c4OCO5)ncnc3c2)CC1 [Saracatinib] + CS(=O)(=O)N1CCN(Cc2cc3nc(-c4cccc5[nH]ncc45)nc(N4CCOCC4)c3s2)CC1 [Pictilisib] (partner 1 µM)
relative viability (201T; first compound 0.02 µM): 0.702 | relative viability (201T; first compound 0.2 µM): 0.627 | relative viability (201T; first compound 0.6325 µM): 0.603 | relative viability (201T; first compound 2 µM): 0.554 | relative viability (BEN; first compound 0.02 µM): 0.57 | relative viability (BEN; first compound 0.2 µM): 0.56 | relative viability (BEN; first compound 0.6325 µM): 0.573 | relative viability (BEN; first compound 2 µM): 0.427 | relative viability (CAL-12T; first compound 0.02 µM): 0.428 | relative viability (CAL-12T; first compound 0.2 µM): 0.399 | relative viability (CAL-12T; first compound 0.6325 µM): 0.491 | relative viability (CAL-12T; first compound 2 µM): 0.255 | relative viability (HCC-78; first compound 0.02 µM): 0.242 | relative viability (HCC-78; first compound 0.2 µM): 0.154 | relative viability (HCC-78; first compound 0.6325 µM): 0.178 | relative viability (HCC-78; first compound 2 µM): 0.21 | relative viability (HOP-62; first compound 0.02 µM): 0.548 | relative viability (HOP-62; first compound 0.2 µM): 0.685 | relative viability (HOP-62; first compound 0.6325 µM): 1.05 | relative viability (HOP-62; first compound 2 µM): 0.605 | relative viability (LCLC-97TM1; first compound 0.02 µM): 0.231 | relative viability (LCLC-97TM1; first compound 0.2 µM): 0.12 | relative viability (LCLC-97TM1; first compound 0.6325 µM): 0.193 | relative viability (LCLC-97TM1; first compound 2 µM): 0.186 | relative viability (LOU-NH91; first compound 0.02 µM): 0.535 | relative viability (LOU-NH91; first compound 0.2 µM): 0.442 | relative viability (LOU-NH91; first compound 0.6325 µM): 0.502 | relative viability (LOU-NH91; first compound 2 µM): 0.437 | relative viability (NCI-H1355; first compound 0.02 µM): 0.497 | relative viability (NCI-H1355; first compound 0.2 µM): 0.467 | relative viability (NCI-H1355; first compound 0.6325 µM): 0.516 | relative viability (NCI-H1355; first compound 2 µM): 0.461 | relative viability (NCI-H1395; first compound 0.02 µM): 0.603 | relative viability (NCI-H1395; first compound 0.2 µM): 0.497 | relative viability (NCI-H1395; first compound 0.6325 µM): 0.672 | relative viability (NCI-H1395; first compound 2 µM): 0.528 | relative viability (NCI-H1563; first compound 0.02 µM): 0.618 | relative viability (NCI-H1563; first compound 0.2 µM): 0.609 | relative viability (NCI-H1563; first compound 0.6325 µM): 0.63 | relative viability (NCI-H1563; first compound 2 µM): 0.606 | relative viability (NCI-H1651; first compound 0.02 µM): 0.507 | relative viability (NCI-H1651; first compound 0.2 µM): 0.499 | relative viability (NCI-H1651; first compound 0.6325 µM): 0.563 | relative viability (NCI-H1651; first compound 2 µM): 0.5 | relative viability (NCI-H1793; first compound 0.02 µM): 0.345 | relative viability (NCI-H1793; first compound 0.2 µM): 0.213 | relative viability (NCI-H1793; first compound 0.6325 µM): 0.41 | relative viability (NCI-H1793; first compound 2 µM): 0.408 | relative viability (NCI-H1915; first compound 0.02 µM): 0.952 | relative viability (NCI-H1915; first compound 0.2 µM): 0.79 | relative viability (NCI-H1915; first compound 0.6325 µM): 0.928 | relative viability (NCI-H1915; first compound 2 µM): 0.767 | relative viability (NCI-H1944; first compound 0.02 µM): 0.335 | relative viability (NCI-H1944; first compound 0.6325 µM): 0.288 | relative viability (NCI-H1944; first compound 2 µM): 0.278 | relative viability (NCI-H2126; first compound 0.02 µM): 0.475 | relative viability (NCI-H2126; first compound 0.2 µM): 0.498 | relative viability (NCI-H2126; first compound 0.6325 µM): 0.529 | relative viability (NCI-H2126; first compound 2 µM): 0.429 | relative viability (NCI-H2347; first compound 0.02 µM): 0.654 | relative viability (NCI-H2347; first compound 0.2 µM): 0.6 | relative viability (NCI-H2347; first compound 0.6325 µM): 0.772 | relative viability (NCI-H2347; first compound 2 µM): 0.527 | relative viability (NCI-H3122; first compound 0.02 µM): 0.573 | relative viability (NCI-H3122; first compound 0.6325 µM): 0.586 | relative viability (NCI-H3122; first compound 2 µM): 0.454 | relative viability (NCI-H322M; first compound 0.02 µM): 0.549 | relative viability (NCI-H322M; first compound 0.2 µM): 0.474 | relative viability (NCI-H322M; first compound 0.6325 µM): 0.496 | relative viability (NCI-H322M; first compound 2 µM): 0.296 | relative viability (NCI-H441; first compound 0.02 µM): 0.461 | relative viability (NCI-H441; first compound 0.2 µM): 0.406 | relative viability (NCI-H441; first compound 0.6325 µM): 0.501 | relative viability (NCI-H441; first compound 2 µM): 0.329 | relative viability (NCI-H650; first compound 0.02 µM): 0.771 | relative viability (NCI-H650; first compound 0.2 µM): 0.837 | relative viability (NCI-H650; first compound 0.6325 µM): 0.871 | relative viability (NCI-H650; first compound 2 µM): 0.86 | relative viability (NCI-H838; first compound 0.02 µM): 0.351 | relative viability (NCI-H838; first compound 0.2 µM): 0.447 | relative viability (NCI-H838; first compound 0.6325 µM): 0.344 | relative viability (NCI-H838; first compound 2 µM): 0.326 | relative viability (SK-LU-1; first compound 0.02 µM): 0.443 | relative viability (SK-LU-1; first compound 0.2 µM): 0.419 | relative viability (SK-LU-1; first compound 0.6325 µM): 0.388 | relative viability (SK-LU-1; first compound 2 µM): 0.226 | relative viability (SW 1573; first compound 0.02 µM): 0.47 | relative viability (SW 1573; first compound 0.2 µM): 0.451 | relative viability (SW 1573; first compound 0.6325 µM): 0.456 | relative viability (SW 1573; first compound 2 µM): 0.295
